Measured values taken from patent US7307063B2, “Melanocortin metallopeptides for treatment of sexual dysfunction” (Palatin Technologies, Inc., priority 2001, dated 2007).
Non-standard residues stand in square brackets, D forms with d. Nle = CCCC[C@H](N)C(=O)O

Legend:
[1] = system: Male Sprague-Dawley rats; experiment: Combination penile erection behavior studies: antagonist IV before IN agonist; type: in vivo, rat;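 on Mean Penile Erections/Rat: Erections counted over 30 min observation after IN dosing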;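 on Percent with Penile Erections: Erections counted over 30 min observation after IN dosing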
Experimental: Conditions were as in Example 3 except as noted. Groups of 5-6 rats received an IV dose of either placebo or antagonist 5 minutes prior to an IN dose of either placebo or agonist. Two antagonists were used: ReO[Heptanoyl-Ser(Bzl)-D-Nal 2′-Arg-Trp-Cys-NH2] and SHU9119 (Hruby V J, Lu D, Sharma S D, et al. J Med Chem 38:3454-3461 (1995)), Ac-Nle-cyclo(-Asp-His-D-Nal 2′-Arg-Trp-Lys)-NH2. The agonist used was Ac-Nle-cyclo(-Asp-His-D-Phe-Arg-Trp-Lys)-OH. Immediately after IN treatment, rats were placed into individual Lucite cages for observation. […] In combination studies, the antagonist was dosed IV 5 minutes prior to a 50 μg/kg IN dose of Ac-Nle-cyclo(-Asp-His-D-Phe-Arg-Trp-Lys)-OH.
These studies were conducted as described above in Example 4 with metallopeptide antagonists administered IV five minutes before IN administration of 50 μg/kg Ac-Nle-cyclo(-Asp-His-D-Phe-Arg-Trp-Lys)-OH. […] The potency of these antagonists also correlated with their relative binding affinities in the in vitro binding assays.

[2] = molecular target: T1, MC1-R (Mus musculus, UniProt Q01727); experiment: Competitive binding assay: inhibition of 125I-NDP-α-MSH binding to membranes from B16-F10 mouse melanoma cells; conditions: Table 1
T1 construct: MC1-R membranes were isolated from B16—F10 mouse melanoma cells; endogenous in cells; host or cells: B16-F10 mouse melanoma cells
Method in brief: (§1)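 Radioligand displacement: Re-metallopeptide at a chosen concentration versus 125I-NDP-α-MSH on receptor membranes. Values are percent inhibition of specific binding, defined using 1 μM α-MSH; added peptides were run in triplicate and averaged.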

[3] = molecular target: T2, hMC3-R (Homo sapiens, UniProt P41968); experiment: Competitive binding assay: inhibition of 125I-NDP-α-MSH binding to HEK-293 membranes with cloned human receptor subtype 3; conditions: Table 1
T2 construct: expressed in transfected cells; host or cells: HEK-293
Experimental: Rhenium-complexed metallopeptides of the formulas given in Table 1 were prepared, with the metallopeptides complexed with rhenium using the rhenium transfer agent ReOCl3(PPh3)2 in the presence of 1,8-Diazabicyclo[5,4,0] undec-7-ene as a base, as disclosed in International Application PCT/US00/16396, filed Jun. 14, 2000, Melanocortin Metallopeptide Constructs, Combinatorial Libraries and Applications, incorporated by reference herein. Affinities of compounds were measured using membranes from HEK-293 cells containing cloned human melanocortin receptor subtypes 3, 4 and 5. MC1-R membranes were isolated from B16—F10 mouse melanoma cells. The assay tube also contained a chosen concentration of the test peptide of this invention, complexed to a rhenium metal ion as indicated, for determining its efficacy in inhibiting the binding of ^125I-NDP-α-MSH to its receptor. Non-specific binding was measured by complete inhibition of binding of ^125I-NDP-α-MSH in the assay with the presence of 1 μM α-MSH. 100% specific binding was defined as the difference in radioactivity (cpm) bound to cell membranes in the absence and presence of 1 μM α-MSH. The cpm obtained in presence of test compounds were normalized with respect to 100% specific binding to determine the percent inhibition of ^125I-NDP-α-MSH binding.

[4] = molecular target: T3, hMC5-R (Homo sapiens, UniProt P33032); experiment: Competitive binding assay: inhibition of 125I-NDP-α-MSH binding to HEK-293 membranes with cloned human receptor subtype 5; conditions: Table 1
T3 construct: expressed in transfected cells; host or cells: HEK-293
Method in brief: as §1

[5] = molecular target: T4, MC4-R (Homo sapiens, UniProt P32245); experiment: Competitive binding assay: inhibition of 125I-NDP-α-MSH binding to HEK-293 membranes with cloned human receptor subtype 4; conditions: Table 1
T4 construct: expressed in transfected cells; host or cells: HEK-293
Method in brief: as §1

[6] = molecular target: T4, MC4-R; experiment: Functional activity assay: intracellular cAMP in HEK-293 cells expressing MC4-R; type: cell-based; conditions: Re-complexed peptide
Experimental: (§2) Rhenium-complexed metallopeptides were prepared, with functional evaluation of peptides at MC1-R and MC4-R performed by measuring the accumulation of intracellular cAMP in HEK-293 cells expressing MC4-R or B16-F10 mouse melanoma cells expressing MC1-R. Antagonistic activity was determined by measuring the inhibition of α-MSH-induced cAMP levels following exposure to peptide. Cells, suspended in Earle's Balanced Salt Solution containing 10 mM HEPES, pH 7.5, 5 mM MgCl2, 1 mM glutamine, 0.1% albumin and 0.6 mM 3-isobutyl-1-methyl-xanthine, a phosphodiesterase inhibitor, were plated in 96 well plates at a density of 0.5×10^5 cells per well. Cells were incubated with the test peptides in the presence or absence of α-MSH for 1 hour at 37° C. cAMP levels were measured by EIA (Amersham) in the cell lysates. Data analysis and EC50 values were determined using nonlinear regression analysis with Prism Graph-Pad software.

[7] = system: Male Sprague-Dawley rats; experiment: Combination penile erection behavior studies: antagonist IV before IN agonist; type: in vivo, rat; conditions: effect induced by 50 µg/kg intranasal Ac-Nle-cyclo(-Asp-His-D-Phe-Arg-Trp-Lys)-OH;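 on Mean Penile Erections/Rat: Erections counted over 30 min observation after IN dosing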;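 on Percent with Penile Erections: Erections counted over 30 min observation after IN dosing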
[8] = system: Male Sprague-Dawley rats; experiment: Penile erection behavior dose response animal studies; type: in vivo, rat; conditions: for Mean Penile Erections/Rat: 30 min observation; for Induction of penile erections (PEs) in rat model, in words: rats, IV
Experimental: For behavioral experiments test solutions of rhenium-complexed metallopeptides were freshly prepared in DMSO and diluted in saline. Male Sprague-Dawley rats (Taconic) weighing 200-250 g were kept on a 12 hour on/off light cycle with food and water ad libitum. All behavioral studies were performed between 10 a.m. and 5 p.m. Groups of 3-10 rats were treated with the rhenium-complexed metallopeptides at a variety of doses via intravenous (IV) injection. In a second experimental paradigm, rats were treated a selected compound intranasally (IN) using a micropipet to deliver 25 μl of solution into one nostril. Immediately after treatment, rats were placed into individual Lucite cages (27 cm long, 16 cm wide and 25 cm high) for behavioral observation.

[9] = molecular target: T1, MC1-R; experiment: Functional activity assay: intracellular cAMP in B16-F10 mouse melanoma cells expressing MC1-R; type: cell-based; conditions: Re-complexed peptide
Experimental: as §2

[10] = combination: antagonist 200 μg/kg IV 5 min prior to 50 μg/kg IN Ac-Nle-cyclo(-Asp-His-D-Phe-Arg-Trp-Lys)-OH

T3 sequence (P33032 whole entry): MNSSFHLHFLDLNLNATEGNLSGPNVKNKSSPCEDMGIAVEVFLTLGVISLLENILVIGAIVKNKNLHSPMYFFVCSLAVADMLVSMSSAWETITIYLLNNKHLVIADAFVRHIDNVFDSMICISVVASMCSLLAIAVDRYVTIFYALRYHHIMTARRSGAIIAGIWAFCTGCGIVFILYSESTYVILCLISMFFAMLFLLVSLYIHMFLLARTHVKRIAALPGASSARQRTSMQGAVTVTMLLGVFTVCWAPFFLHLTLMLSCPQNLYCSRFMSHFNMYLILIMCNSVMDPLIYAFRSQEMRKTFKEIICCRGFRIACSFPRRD
T4 sequence (P32245 whole entry): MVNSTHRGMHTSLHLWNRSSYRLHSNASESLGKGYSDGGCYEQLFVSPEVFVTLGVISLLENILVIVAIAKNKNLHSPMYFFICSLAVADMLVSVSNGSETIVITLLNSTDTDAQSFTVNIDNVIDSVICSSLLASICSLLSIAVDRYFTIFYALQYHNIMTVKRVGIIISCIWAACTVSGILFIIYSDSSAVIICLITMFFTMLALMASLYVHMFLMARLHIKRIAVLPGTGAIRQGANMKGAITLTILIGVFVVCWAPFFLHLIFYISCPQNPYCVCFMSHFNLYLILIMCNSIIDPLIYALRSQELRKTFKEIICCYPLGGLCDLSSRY
T1 sequence (Q01727 whole entry): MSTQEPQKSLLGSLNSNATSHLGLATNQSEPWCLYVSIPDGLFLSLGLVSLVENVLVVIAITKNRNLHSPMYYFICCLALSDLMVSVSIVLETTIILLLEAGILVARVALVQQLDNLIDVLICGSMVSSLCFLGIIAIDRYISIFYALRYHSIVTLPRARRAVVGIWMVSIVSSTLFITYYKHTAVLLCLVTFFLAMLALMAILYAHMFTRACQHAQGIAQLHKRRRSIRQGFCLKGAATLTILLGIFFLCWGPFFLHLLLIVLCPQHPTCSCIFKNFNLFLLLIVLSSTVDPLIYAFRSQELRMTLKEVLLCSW
T2 sequence (P41968 whole entry): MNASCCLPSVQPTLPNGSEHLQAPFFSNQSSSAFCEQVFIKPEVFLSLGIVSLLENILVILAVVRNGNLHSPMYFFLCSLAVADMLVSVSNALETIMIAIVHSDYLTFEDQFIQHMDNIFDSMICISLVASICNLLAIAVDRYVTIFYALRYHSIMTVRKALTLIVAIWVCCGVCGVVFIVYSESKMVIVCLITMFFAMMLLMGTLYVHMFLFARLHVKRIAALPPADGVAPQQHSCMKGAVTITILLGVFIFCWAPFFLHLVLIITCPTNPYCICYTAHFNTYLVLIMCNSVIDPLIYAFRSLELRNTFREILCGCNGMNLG

% Inhibition of Binding MC1-R ([2]; 1 μM Re-complexed peptide)	% Inhibition of Binding hMC3-R ([3]; 1 μM Re-complexed peptide)	% Inhibition of Binding hMC5-R ([4]; 1 μM Re-complexed peptide)	% Inhibition of Binding hMC4-R ([5]; 1 μM Re-complexed peptide)	Functional activity at MC4-R (cAMP accumulation; inhibition of α-MSH-induced cAMP) [6]	Substance	Percent PE Inhibition ([7]; antagonist 200 μg/kg IV)	Mean Penile Erections/Rat ([8]; IV 150 μg/kg)	Induction of penile erections (PEs) in rat model, in words [8]	other results
19%	64%	98%	97%	MC4-R antagonists	Heptanoyl-Ser(Bzl)-D-Nal 2′-Arg-Trp-Cys-NH2	100%	0	inactive in inducing PEs	Inhibitory effect on agonist-induced PE response, in words ([1]; IV 0, 100, 150 and 200 μg/kg, FIG. 8): increased with dose; Mean Penile Erections/Rat ([1]; antagonist alone, 200 μg/kg IV): 0; Percent with Penile Erections ([1]; antagonist alone, 200 μg/kg IV): 0%; Mean Penile Erections/Rat [1, 10]: 0; Percent with Penile Erections [1, 10]: 0%; Effect on erectile behavior induced by Ac-Nle-cyclo(-Asp-His-D-Phe-Arg-Trp-Lys)-OH, in words ([1]; rats, antagonist IV before IN agonist): blocked; Percent PE Inhibition ([7]; antagonist 100 μg/kg IV): 14.28%; Percent PE Inhibition ([7]; antagonist 150 μg/kg IV): 50%
–	–	–	–	–	Ac-Nle-Ala-His-D-Phe-Arg-Cys-Trp-NH2 ({Ac-Nle-Ala-H2N}-[dF]RCW-NH2; also: ReO complex)	–	–	inactive in inducing PEs	% Inhibition of Binding MC1-R ([2]; 10 μM Re-complexed peptide): 97%; % Inhibition of Binding hMC3-R ([3]; 10 μM Re-complexed peptide): 14%; % Inhibition of Binding hMC5-R ([4]; 10 μM Re-complexed peptide): 22%; % Inhibition of Binding hMC4-R ([5]; 10 μM Re-complexed peptide): 29%; Mean Penile Erections/Rat ([8]; IV 10 μg/kg): 0; Mean Penile Erections/Rat ([8]; IV 50 μg/kg): 0; Functional activity at MC1-R (cAMP accumulation) [9]: MC1-R specific agonist
1%	6%	60%	66%	MC4-R antagonists	Heptanoyl-Ser(Bzl)-D-Nal 2′-Arg-D-Trp-Cys-NH2	50%	0	inactive in inducing PEs	Percent PE Inhibition ([7]; antagonist 500 μg/kg IV): 40%
